Results reported in article PMC9298070, “Lack of a Clinically Meaningful Drug Interaction Between the HIV‐1 Antiretroviral Agents Islatravir, Dolutegravir, and Tenofovir Disoproxil Fumarate” (Clinical Pharmacology in Drug Development, 2021).
Like-named read-outs stand apart in the source and are kept apart here.

Columns and labels:
[1] = system: drug transporters, pumps, transfer proteins, extrusion proteins, or resistance proteins; conditions: cited from earlier work
[2] = system: CYP3A4; design: method as in PMID 34452431; conditions: up to 200 μM; cited from earlier work
[3] = design: method as in PMID 34452431; conditions: cited from earlier work
[4] = design: method as in ref 14, 15 = [14]; 14 Rudd D , Cao Y , Vaddady P , et al. Modeling‐supported islatravir dose selection for phase 3 . Poster presented at Conference on Retroviruses and Opportunistic Infections (CROI); March 8–10 , 2020 || [15]; 15 Matthews RP , Rudd JD , Levine V , et al. Multiple daily doses of MK‐8591 as low as 0.25 mg are expected to suppress HIV . Oral presentation at Conference on Retroviruses and Opportunistic Infectio; conditions: single oral doses of islatravir, adults without HIV; cited from earlier work
[5] = system: HIV‐1; design: method as in ref 17 = [17]; 17 Molina JM , Yazdanpanah Y , Afani Saud A , et al. MK‐8591 at doses of 0.25 to 2.25 mg QD, in combination with doravirine establishes and maintains viral suppression through 48 weeks in treatment‐na; conditions: islatravir in combination with doravirine, treatment-naive adults with HIV-1, phase 2b; cited from earlier work
[6] = system: CYP2C19; design: method as in PMID 34452431; conditions: at concentrations up to 100 μM; cited from earlier work
[7] = system: CYP2C8; design: method as in PMID 34452431; conditions: at concentrations up to 100 μM; cited from earlier work
[8] = system: CYP1A2; design: method as in PMID 34452431; conditions: at concentrations up to 100 μM; cited from earlier work
[9] = system: HIV‐1; design: method as in PMID 31911147; conditions: single oral dose as low as 0.5 mg, treatment-naive adults with HIV-1; cited from earlier work
[10] = Safety and tolerability in the phase 1 trial (adverse event reports, laboratory tests, ECG, vital signs); format: in vivo, human; conditions: for participants reporting AEs considered drug-related: of 12 participants; for tolerability: adults without HIV, N = 12
Description: (§1) This was a phase 1, open‐label, fixed‐sequence, 2‐period trial in adults without HIV (protocol MK‐8591‐005). In period 1, participants received a single oral dose of 20 mg islatravir. In period 2, participants received multiple oral doses of 50 mg dolutegravir and 300 mg TDF once daily for 11 consecutive days (days 1‐11), with a single oral dose of 20 mg islatravir coadministered on day 8. There was a washout period of ≥7 days between islatravir dosing in period 1 and the first dose of dolutegravir and TDF in period 2 (Figure 1).
Safety and tolerability were monitored by repeated clinical and laboratory evaluations for the duration of the trial. Safety evaluations included adverse event (AE) reports, laboratory tests, 12‐lead electrocardiograms, and vital signs.
Incidence of adverse experiences was descriptively summarized.

[11] = system: CYP2C9; design: method as in PMID 34452431; conditions: at concentrations up to 100 μM; cited from earlier work
[12] = system: CYP2B6; design: method as in PMID 34452431; conditions: at concentrations up to 100 μM; cited from earlier work
[13] = system: uridine diphosphate glucuronosyltransferase 1A1; design: method as in PMID 34452431; conditions: at concentrations up to 100 μM; cited from earlier work
[14] = Plasma pharmacokinetics in phase 1, open-label, fixed-sequence, 2-period drug interaction trial (MK-8591-005); format: in vivo, human
Description: as §1
Blood samples for islatravir plasma analysis were collected before dosing and at selected time points over 96 hours following administration of islatravir on day 1 of period 1 and day 8 of period 2. In period 2, samples taken at 24, 48, and 72 hours for islatravir plasma analysis were collected before dose administration of dolutegravir and TDF. Blood samples for plasma analysis of dolutegravir and tenofovir were collected before dosing on days 1, 7, and 8 of period 2 and at selected time points over 24 hours after dosing on days 7 and 8 of period 2. The 24 hour samples for dolutegravir and tenofovir analysis for days 7 and 8 were collected before dosing of dolutegravir and TDF.
Plasma concentrations of islatravir, dolutegravir, and tenofovir were determined by inVentiv Health Clinique (Québec City, Québec, Canada) using validated high‐performance liquid chromatography coupled to tandem mass spectrometry methods.
Islatravir (m/z 294.000/154.000) was extracted using an automated protein precipitation method using [^13C,^15N3]‐ISL as internal standard (m/z 297.800/158.000). The extracted samples were assessed on a system equipped with a X Select HSS T3 C18, 50×2.1 mm, 2.5 μm column with water/acetonitrile with formic acid mobile phase. […] The lower limit of quantitation for islatravir was 0.10 ng/mL, with an analytical range of 0.10 to 100.00 ng/mL.
Dolutegravir (m/z 420.200/277.200) was extracted using an automated protein precipitation method using [C^13‐d5]‐dolutegravir as the internal standard (m/z 426.300/277.300). The extracted samples were assessed on a system equipped with an ACE 3 C18, 30 × 4.6 mm, 3 μm column (Avantor, Radnor, Pennsylvania) with water/methanol with ammonium formate and formic acid mobile phase. […] The lower limit of quantitation for dolutegravir was 10.00 ng/mL, with an analytical range of 10.00 to 10 000.00 ng/mL.
Tenofovir (m/z 288.200/176.200) was extracted using an automated solid phase extraction using tenofovir‐d6 as internal standard (m/z 294.100/182.300). The extracted samples were assessed on a system equipped with an Atlantis dC18, 75 × 4.6 mm, 3 μm column (Waters Corp., Milford, Massachusetts) with water/acetonitrile with ammonium formate and formic acid mobile phase. […] The lower limit of quantitation for tenofovir was 0.50 ng/mL, with an analytical range of 0.50 to 500.00 ng/mL.
Plasma islatravir, dolutegravir, and tenofovir pharmacokinetics were summarized descriptively. Pharmacokinetic parameter values were calculated using the software Phoenix WinNonlin version 6.3 (Certara, Princeton, New Jersey). Cmax, C24, and tmax values were obtained directly from the observed plasma concentration–time data.

In the case of `C#C[C@]1(CO)O[C@@H](n2cnc3c(N)nc(F)nc32)C[C@@H]1O` [Islatravir, 4′‐Ethynyl‐2‐fluoro‐2′‐deoxyadenosine], the “interference with drug transporters, pumps, transfer proteins, extrusion proteins, or resistance proteins” value [1] is given as “not found to interfere”, the “inhibitory effect on CYP3A4” value [2] is given as “no inhibitory effect” and the plasma protein binding [3] is given as “low”. For the same compound, the “time to peak plasma concentrations” value [4] was “≈ 0.5 hours”, the “duration of maintained virologic suppression” value [5] was “up to 48 weeks” and the “inhibitory effect on CYP2C19” value [6] was “no inhibitory effect”. The “inhibitory effect on CYP2C8” value [7] was “no inhibitory effect”, the “inhibitory effect on CYP1A2” value [8] was “no inhibitory effect” and the “duration of effective viral suppression” value [9] was “up to 7 days”. For the same compound, the “participants reporting AEs considered drug-related” value ([10]; after administration of islatravir) was 3 participants, the “participants reporting AEs considered drug-related” value ([10]; after coadministration of all 3 therapies (islatravir, dolutegravir, TDF)) was 1 participant and the tolerability ([10]; islatravir alone, single oral 20 mg) was “generally well tolerated”. For the same compound, the tolerability ([10]; islatravir in combination with dolutegravir and TDF) was “generally well tolerated”, the “inhibitory effect on CYP2C9” value [11] was “no inhibitory effect” and the “inhibitory effect on CYP2B6” value [12] was “no inhibitory effect”. For the same compound, the “inhibitory effects on uridine diphosphate glucuronosyltransferase 1A1” value [13] was “No inhibitory effects”, the “increase of islatravir AUC0‐inf on coadministration” value ([14]; coadministration with steady-state dolutegravir and TDF compared with islatravir administered alone) was 28% and the half-life ([14]; human, oral, plasma islatravir, single 20 mg islatravir on day 8 with 50 mg dolutegravir + 300 mg TDF once daily, period 2, N = 12, read-out: Apparent terminal t1/2, geometric mean (geometric CV %) (converted)) was 55.9 h. It also gave an AUC ([14]; human, plasma, oral, plasma islatravir, single 20 mg islatravir on day 8 with 50 mg dolutegravir + 300 mg TDF once daily days 1-11, period 2, N = 12, read-out: AUC0‐inf, AM (SD)) of 2.53 µM·h, an AUC ([14]; human, plasma, oral, plasma islatravir, single 20 mg islatravir on day 8 with 50 mg dolutegravir + 300 mg TDF once daily days 1-11, period 2, N = 12, read-out: AUC0‐inf, GM (95%CI)) of 2.51 µM·h and a Cmax ([14]; human, plasma, oral, plasma islatravir, single 20 mg islatravir on day 8 with 50 mg dolutegravir + 300 mg TDF once daily days 1-11, period 2, N = 12, read-out: Cmax, AM (SD)) of 522 nM. For the same compound, the Cmax ([14]; human, plasma, oral, plasma islatravir, single 20 mg islatravir on day 8 with 50 mg dolutegravir + 300 mg TDF once daily days 1-11, period 2, N = 12, read-out: Cmax, GM (95%CI)) was 510 nM, the half-life ([14]; human, plasma, oral, plasma islatravir, single 20 mg islatravir on day 8 with 50 mg dolutegravir + 300 mg TDF once daily, period 2, N = 12, read-out: Apparent terminal t1/2, AM (SD) (converted)) was 56.2 h and the AUC ([14]; human, plasma, po, 20 mg, plasma islatravir, islatravir alone, single oral 20 mg, day 1 period 1, N = 12, read-out: AUC0‐inf, AM (SD)) was 2 µM·h. It also gave an AUC ([14]; human, plasma, po, 20 mg, plasma islatravir, islatravir alone, single oral 20 mg, day 1 period 1, N = 12, read-out: AUC0‐inf, GM (95%CI)) of 1.97 µM·h, a half-life ([14]; human, plasma, po, 20 mg, plasma islatravir, islatravir alone, single oral 20 mg, day 1 period 1, N = 12, read-out: Apparent terminal t1/2, AM (SD) (converted)) of 57.2 h and a half-life ([14]; human, plasma, po, 20 mg, plasma islatravir, islatravir alone, single oral 20 mg, day 1 period 1, N = 12, read-out: Apparent terminal t1/2, geometric mean (geometric CV %) (converted)) of 56.6 h. It also gave a Cmax ([14]; human, plasma, po, 20 mg, plasma islatravir, islatravir alone, single oral 20 mg, day 1 period 1, N = 12, read-out: Cmax, AM (SD)) of 495 nM, a Cmax ([14]; human, plasma, po, 20 mg, plasma islatravir, islatravir alone, single oral 20 mg, day 1 period 1, N = 12, read-out: Cmax, GM (95%CI)) of 479 nM and a Tmax ([14]; human, plasma, po, 20 mg, plasma islatravir, islatravir alone, single oral 20 mg, day 1 period 1, N = 12, read-out: tmax, median (min‐max)) of 0.75 h. The “tmax, median (min‐max)” value ([14]; plasma islatravir, single 20 mg islatravir on day 8 with 50 mg dolutegravir + 300 mg TDF once daily, period 2, N = 12) was 1.00 (0.50‐2.01) h.
